This is an account of results in ChEMBL document CHEMBL1667779, “Structure-based parallel medicinal chemistry approach to improve metabolic stability of benzopyran COX-2 inhibitors” (Bioorg Med Chem Lett, 2011).

Series [1] in a line: Metabolic stability of the compound in human liver microsomes assessed as compound remaining at 2 mM after 30 mins by LC/MS analysis. In kind it is ADME, Microsome. As to conditions: read-out: Stability. For orientation: Microsomes from liver hold many membrane-bound enzymes, among them those of drug oxidation.
The target in series [2] is T1, Prostaglandin G/H synthase 2 (Homo sapiens, UniProt P35354).
T1 sequence (P35354 whole entry): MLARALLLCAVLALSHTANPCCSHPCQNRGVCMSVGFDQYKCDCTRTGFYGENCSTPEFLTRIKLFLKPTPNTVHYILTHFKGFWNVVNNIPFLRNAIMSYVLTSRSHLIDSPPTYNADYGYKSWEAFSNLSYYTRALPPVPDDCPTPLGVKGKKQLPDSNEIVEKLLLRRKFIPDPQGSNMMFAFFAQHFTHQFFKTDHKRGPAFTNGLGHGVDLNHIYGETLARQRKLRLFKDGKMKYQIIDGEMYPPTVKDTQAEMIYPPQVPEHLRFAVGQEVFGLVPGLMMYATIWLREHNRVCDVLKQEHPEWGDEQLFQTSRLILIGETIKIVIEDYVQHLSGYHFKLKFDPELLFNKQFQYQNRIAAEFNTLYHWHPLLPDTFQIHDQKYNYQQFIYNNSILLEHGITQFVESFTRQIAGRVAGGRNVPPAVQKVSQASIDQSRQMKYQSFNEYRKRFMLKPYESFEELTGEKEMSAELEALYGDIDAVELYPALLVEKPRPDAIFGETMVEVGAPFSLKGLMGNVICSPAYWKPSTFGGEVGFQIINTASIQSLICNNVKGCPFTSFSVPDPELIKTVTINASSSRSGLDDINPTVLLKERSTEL

The nature of series [3]: Metabolic stability of the compound in rat liver microsomes assessed as compound remaining at 2 mM after 30 mins by LC/MS analysis. In kind it is ADME, Microsome. As to conditions: read-out: Stability.
A further series is filed under the species Homo sapiens. As to the kind of experiment: Selectivity ratio of IC50 for human COX1 to IC50 for human COX2.
The target in series [4] is Prostaglandin G/H synthase 1 (Homo sapiens, UniProt P23219).
Prostaglandin G/H synthase 1, sequence (P23219 whole entry): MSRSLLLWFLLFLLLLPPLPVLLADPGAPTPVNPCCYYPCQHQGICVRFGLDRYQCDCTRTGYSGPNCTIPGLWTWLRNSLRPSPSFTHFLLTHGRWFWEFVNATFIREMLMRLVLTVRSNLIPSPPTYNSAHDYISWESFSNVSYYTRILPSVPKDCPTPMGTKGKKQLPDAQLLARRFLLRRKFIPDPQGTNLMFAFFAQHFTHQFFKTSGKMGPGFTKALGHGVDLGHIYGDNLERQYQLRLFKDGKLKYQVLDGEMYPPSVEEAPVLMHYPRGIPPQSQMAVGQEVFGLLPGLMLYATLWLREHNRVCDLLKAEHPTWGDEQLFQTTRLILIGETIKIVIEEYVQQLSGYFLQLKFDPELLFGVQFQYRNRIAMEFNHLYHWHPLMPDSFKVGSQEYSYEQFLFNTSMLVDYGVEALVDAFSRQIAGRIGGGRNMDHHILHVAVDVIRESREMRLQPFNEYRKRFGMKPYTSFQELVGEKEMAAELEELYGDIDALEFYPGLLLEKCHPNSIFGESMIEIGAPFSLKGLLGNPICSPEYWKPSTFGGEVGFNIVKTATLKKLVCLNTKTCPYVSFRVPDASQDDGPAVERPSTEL
Series [5] is described as follows: Solubility of the compound. The format is physicochemical. As to conditions: read-out: Stability.
Series [6] in a line: Half life in human. In kind it is ADME, organism-based. As to conditions: in vivo.

What is called IC50 is the concentration at which inhibition is half-maximal. High values mean a need for much substance, low ones inhibition by little substance. The half-life is the time needed for the level to fall by half in the phase considered. High values mean slow decline, low ones rapid decline.

In the case of `O=C(O)C1=Cc2cc(Cl)cc(-c3ccc(Cl)cc3)c2OC1C(F)(F)F` (stereo not drawn), the remaining at 0.5 h in series [1] was found to be 53%; in series [3], 57%. Also, the IC50 in series [2] is 21.1 nM; in series [4] it was 0.242 µM. Besides, the Selectivity ratio in the series filed under Homo sapiens stood at 11.4.

With `COc1ccc(-c2cc(Cl)cc3c2OC(C(F)(F)F)C(C(=O)O)=C3)cc1C` (stereo not drawn), the remaining at 0.5 h in series [1] amounted to 84%; in series [3], 61%. For the same compound, the IC50 in series [2] was 339 nM; in series [4], over 100 µM. In addition, in the series listed under Homo sapiens, the Selectivity ratio was over 295.

As for `NS(=O)(=O)c1ccc(-c2cc(Cl)cc3c2OC(C(F)(F)F)C(C(=O)O)=C3)cc1` (stereo not drawn), the Selectivity ratio in the series filed under Homo sapiens came out at 120. Besides, the IC50 in series [4] is 91.4 µM.

As to `CCSc1ccc(-c2cc(Cl)cc3c2OC(C(F)(F)F)C(C(=O)O)=C3)cc1` (stereo not drawn), the values for the remaining at 0.5 h in series [1] and in series [3] were 75% and 47%, respectively. In series [2], this compound returned an IC50 of 242 nM.

On to `Cc1ccc(-c2cc(Cl)cc3c2OC(C(F)(F)F)C(C(=O)O)=C3)cc1F` (stereo not drawn), for which the remaining at 0.5 h was 31% in series [1] and 55% in series [3]. In addition, in the series listed under Homo sapiens, the Selectivity ratio amounted to 375.

On to `CCc1ccc(-c2cc(Cl)cc3c2OC(C(F)(F)F)C(C(=O)O)=C3)cc1` (stereo not drawn), for which the remaining at 0.5 h in series [1] worked out at 18%; in series [3], 60%. For the same compound, the Selectivity ratio in the series listed under Homo sapiens came to 226. It took 17.7 µM to reach half-maximal inhibition in series [4] (IC50).

For the compound `Cc1ccc(-c2cc(Cl)cc3c2OC(C(F)(F)F)C(C(=O)O)=C3)cc1` (stereo not drawn), the remaining at 0.5 h in series [1] is 18%; in series [3], 60%. Further, the IC50 in series [2] was 103 nM; in series [4] it was 4.34 µM. The Selectivity ratio in the series listed under Homo sapiens was found to be 42.1.

Regarding `O=C(O)C1=Cc2cc(Cl)cc(-c3ccc(CO)cc3)c2OC1C(F)(F)F` (stereo not drawn), the values for the remaining at 0.5 h in series [1] and in series [3] were 93% and 75%, respectively. Also, the IC50 stood at 6380 nM in series [2] and 2.44 µM in series [4]. Also, the Selectivity ratio in the series listed under Homo sapiens is 0.38.

`O=C(O)C1=Cc2cc(Cl)cc(-c3ccc(F)cc3)c2OC1C(F)(F)F` (stereo not drawn) had an IC50 in series [2] of over 100000 nM. The Selectivity ratio in the series filed under Homo sapiens was under 0.007.

As for `CS(=O)(=O)c1ccc(-c2cc(Cl)cc3c2OC(C(F)(F)F)C(C(=O)O)=C3)cc1` (stereo not drawn), the values for the IC50 in series [2] and in series [4] were 21300 nM and 3.87 µM, respectively. Further, in the series filed under Homo sapiens, the Selectivity ratio amounted to 0.182.

Turning to `O=C(O)C1=Cc2cc(Cl)cc(-c3ccc(C(=O)O)cc3)c2OC1C(F)(F)F` (stereo not drawn), the remaining at 0.5 h was found to be 90% in series [1] and 91% in series [3]. Besides, the IC50 in series [2] is over 100000 nM; in series [4], over 100 µM.

On to `Nc1ccc(-c2cc(Cl)cc3c2OC(C(F)(F)F)C(C(=O)O)=C3)cc1` (stereo not drawn), for which the remaining at 0.5 h in series [1] stood at 93%; in series [3], 53%. Besides, the IC50 in series [2] is 1820 nM; in series [4], 1.39 µM. Besides, in the series filed under Homo sapiens, the Selectivity ratio was found to be 0.764.

On to `CC(C)Cc1ccc(-c2cc(Cl)cc3c2OC(C(F)(F)F)C(C(=O)O)=C3)cc1` (stereo not drawn), for which the remaining at 0.5 h in series [1] is 88%; in series [3], 96%. Besides, the values for the IC50 in series [2] and in series [4] were 13400 nM and 26.5 µM, respectively. The Selectivity ratio in the series listed under Homo sapiens was 2.

On to `CS(=O)(=O)Nc1ccc(-c2cc(Cl)cc3c2OC(C(F)(F)F)C(C(=O)O)=C3)cc1` (stereo not drawn), for which the remaining at 0.5 h in series [1] came out at 100%; in series [3], 53%. Also, the results for the IC50 in series [2] and in series [4] were 40100 nM and over 100 µM, respectively. For the same compound, the Selectivity ratio in the series filed under Homo sapiens was over 2.5.

As to `O=C(O)C1=Cc2cc(Cl)cc(Cl)c2OC1C(F)(F)F` (stereo not drawn), the remaining at 0.5 h in series [1] and in series [3] was 100% in each case. Besides, the solubility in series [5] was over 30 µM. The compound also gave a half-life in series [6] of 15 days.

Take `O=C(O)C1=Cc2cc(Cl)cc(-c3ccc(O)cc3)c2OC1C(F)(F)F` (stereo not drawn): the figures for the remaining at 0.5 h in series [1] and in series [3] were 91% and 94%, respectively. Further, the IC50 turned out to be 3480 nM in series [2] and 2.91 µM in series [4]. In the series listed under Homo sapiens, the Selectivity ratio amounted to 0.84.

In the case of `O=C(O)C1=Cc2cc(Cl)cc(-c3ccccc3)c2OC1C(F)(F)F` (stereo not drawn), the IC50 in series [2] came to 188 nM; in series [4], 1.54 µM. In addition, the Selectivity ratio in the series filed under Homo sapiens is 8.2.

For `CCOc1ccc(-c2cc(Cl)cc3c2OC(C(F)(F)F)C(C(=O)O)=C3)cc1` (stereo not drawn), the values for the remaining at 0.5 h in series [1] and in series [3] were 91% and 82%, respectively. Also, the results for the IC50 in series [2] and in series [4] were 355 nM and 32 µM, respectively. For the same compound, the Selectivity ratio in the series listed under Homo sapiens was 90.1.
